{"source": "patent US20090093865A1", "about": "“METHOD AND SYSTEM FOR CONTROLLING THE SPREAD OF MICROORGANISMS AMONG SUBJECTS IN A GROUP” (priority 2006, published 2009)", "origin": "cited, not measured here", "system": "methicillin-resistant Staphylococcus aureus", "settings": "randomized controlled trial of mupirocin versus placebo (Harbarth et al. 1999)"}
{"smiles": "C/C(=C\\C(=O)OCCCCCCCCC(=O)O)C[C@@H]1OC[C@H](C[C@@H]2O[C@H]2[C@@H](C)[C@H](C)O)[C@@H](O)[C@H]1O", "note": "[mupirocin]", "values": [{"measurement": "carriers in whom methicillin-resistant S. aureus was successfully eradicated", "value": 44, "unit": "%"}]}
